Laboratory results reported in patent US20240368104A1, “Novel Dialkoxynaphtho[2,3-C]Furan-1(3H)-One Derivatives and Pharmaceutical Composition For Preventing or Treating Respiratory Disease or SARS-COV-2 Infection Disease, Comprising Same” (priority 2021, published 2024).
Read-outs that look alike come from different tables or passages of the source.

Assays:
SARS-COV-2 = assay: microbe, parasite or virus in culture; type: cell-based; set-up: SI (Selectivity Index, CC50/IC50): unit not given here; conditions: for SI (Selectivity Index, CC50/IC50): SARS-COV-2, values >50 assumed to be 50; for IC50: read-out: SARS-COV-2 inhibition (IC50)
[1] = system: IL-5 expression in Th2 cells; assay: Inhibition of IL-5 expression in Th2 cells (ELISA); type: cell-based, Balb/C mice; conditions: Splenocyte, read-out: Inhibitory ability against IL-5 expression (%)
Procedure: Specifically, after spleens were collected from Balb/C mice, CD4+ T cells were isolated therefrom and were seeded at 1-2×10^6 per well into a 48-well tissue culture plate coated with anti-CD3 (5 ug/ml) and anti-CD28 (1 ug/ml). At this time, the culture medium was incubated with IL-2 (20 ng/ml), IL-4 (100 ng/ml), anti-IFNγ (10 ug/ml), anti-IL12 (10 ug/ml), and a derivative of 1 nM for two days, transferred to a new tissue culture plate, and further cultured for three days to induce differentiation into Th2 cells. After replacing with a new medium containing anti-IFNγ (10 ug/ml), anti-IL12 (10 ug/ml) and a derivative of 1 nM, polarization of Th2 cells was induced using PMA and A23187. After two days of culture, the cells were centrifuged and the culture medium was taken to perform IL-5 ELISA. IL-5 ELISA was performed according to the test method of the kit manufacturer.

in vitro = conditions: African green monkey
[2] = Severe acute respiratory syndrome coronavirus 2, Vero cells, 24 hours infection
[3] = Th2 cells from mouse splenocytes, compound 1 nM
[4] = Severe acute respiratory syndrome coronavirus 2, Vero, 24 h

Compound | SI (Selectivity Index, CC50/IC50) (SARS-COV-2) | IC50 (SARS-COV-2; [2]) | inhibition at 0.001 µM [1, 3] | CC50 (in vitro) | IC50 (SARS-COV-2; [4]) | inhibition at 0.001 µM ([1]; Mus musculus)
CCOC(=O)C1CCCN(c2ncc(-c3c4c(cc5cc(OC)c(OC)cc35)COC4=O)cn2)C1 (stereo not shown) [Example 15, Ethyl 1-(5-(6,7-dimethoxy-3-oxo-1,3-dihydronaphtho[2,3-c]furan-4-yl)pyrimidin-2-yl) piperidin-3-carboxylate] | 11.37 | 4.4 µM | 82.9% | > 50 µM | – | –
COc1cc2cc3c(c(-c4cnc5ccccc5c4)c2cc1OC)C(=O)OC3 [Example 46, 6,7-dimethoxy-9-(quinolin-3-yl)naphtho[2,3-c]furan-1(3H)-one] | 512.00 | 0.1 µM | 50.4% | > 50 µM | – | –
COc1cc2cc3c(c(N[C@H]4CCc5c(cccc5OC)C4)c2cc1OC)C(=O)OC3 [Example 1, (S)-6,7-dimethoxy-9-((5-methoxy-1,2,3,4-tetrahydronaphthalen-2-yl)amino)naphtho[2,3-c]furan-1(3H)-one] | 1.00 | > 50 µM | 61.9% | > 50 µM | – | –
COc1cc2cc3c(c(-c4cnc(N5CCC[C@H]5C(=O)N[C@@H](C)c5ccc(F)cc5)nc4)c2cc1OC)C(=O)OC3 [Example 39, (S)-1-(5-(6,7-dimethoxy-3-oxo-1,3-dihydronaphtho[2,3-c]furan-4-yl)pyrimidin-2-yl)-N—((S)-1-(4-fluorophenyl)ethyl)pyrrolidin-2-carboxamide] | 1.98 | 13.6 µM | 47.7% | > 50 µM | – | –
COc1cc2cc3c(c(-c4cnc(OCCN5CCOCC5)nc4)c2cc1OC)C(=O)OC3 [Example 13, 6,7-dimethoxy-9-(2-(2-morpholinoethoxy)pyrimidin-5-yl)naphtho[2,3-c]furan-1(3H)-one] | 1.00 | > 50 µM | 67.7% | > 50 µM | – | –
CCCOCCN(CCC)c1ncc(-c2c3c(cc4cc(OC)c(OC)cc24)COC3=O)cn1 [Example 42, 6,7-dimethoxy-9-(2-((2-propoxyethyl)(propyl)amino)pyrimidin-5-yl)naphtho[2,3-c]furan-1(3H)-one] | 1.00 | > 50 µM | 64.8% | > 50 µM | – | –
COC(=O)[C@@H](C)NC(=O)[C@@H]1CCCN1c1ncc(-c2c3c(cc4cc(OC)c(OC)cc24)COC3=O)cn1 [Example 38, Methyl (5-(6,7-dimethoxy-3-oxo-1,3-dihydronaphtho[2,3-c]furan-4-yl)pyrimidin-2-yl)-L-prolyl-D-alaninate] | – | – | 62.8% | – | – | –
COc1cc2cc3c(c(-c4cnc(Nc5ccc(C)c(C)c5)nc4)c2cc1OC)C(=O)OC3 [Example 14, 9-(2-((3,4-dimethylphenyl)amino)pyrimidin-5-yl)-6,7-dimethoxynaphtho[2,3-c]furan-1(3H)-one] | 3.31 | 15.1 µM | 58.9% | > 50 µM | – | –
COc1cc2cc3c(c(-c4cnc(N(C)C(C)C)nc4)c2cc1OC)C(=O)OC3 [Example 23, 9-(2-(isopropyl(methyl)amino)pyrimidin-5-yl)-6,7-dimethoxynaphtho[2,3-c]furan-1(3H)-one] | 61.34 | 0.08 µM | 68.2% | > 50 µM | – | –
COc1cc2cc3c(c(-c4cnc(NCCCn5ccnc5)nc4)c2cc1OC)C(=O)OC3 [Example 16, 9-(2-((3-(1H-imidazol-1-yl)propyl)amino)pyrimidin-5-yl)-6,7-dimethoxynaphtho[2,3-c]furan-1(3H)-one] | 1.6 | 31.2 µM | 70.8% | > 50 µM | – | –
COc1cc2cc3c(c(-c4cnc(NCc5ccc(C)o5)nc4)c2cc1OC)C(=O)OC3 [Example 50, 6,7-dimethoxy-9-(2-(((5-methylfuran-2-yl)methyl)amino)pyrimidin-5-yl)naphtho[2,3-c]furan-1(3H)-one] | 5.27 | 9.49 µM | 61.5% | > 50 µM | – | –
CCCOCCNc1ncc(-c2c3c(cc4cc(OC)c(OC)cc24)COC3=O)cn1 [Example 37, 6,7-dimethoxy-9-(2-((2-propoxyethyl)amino)pyrimidin-5-yl)naphtho[2,3-c]furan-1(3H)-one] | 1.00 | > 50 µM | 56% | > 50 µM | – | –
CCOC(=O)[C@@H]1CCCN1c1ncc(-c2c3c(cc4cc(OC)c(OC)cc24)COC3=O)cn1 [Example 19, (S)ethyl 1-(5-(6,7-dimethoxy-3-oxo-1,3-dihydronaphtho[2,3-c]furan-4-yl)pyrimidin-2-yl)pyrrolidin-2-carboxylate] | 1.60 | 31.3 µM | 92.3% | > 50 µM | – | –
COc1cc2cc3c(c(-c4cnc(O[C@H]5CN6CCC5CC6)nc4)c2cc1OC)C(=O)OC3 [Example 17, (R)-6,7-dimethoxy-9-(2-(quinuclidin-3-yloxy)pyrimidin-5-yl)naphtho[2,3-c]furan-1(3H)-one] | 1.59 | – | – | > 50 µM | 31.4 µM | 55.2%
CCCCCCOCCN(CCCCCC)c1ncc(-c2c3c(cc4cc(OC)c(OC)cc24)COC3=O)cn1 [Example 48, 9-(2-(hexyl(2-(hexyloxy)ethyl)amino)pyrimidin-5-yl)-6,7-dimethoxynaphtho[2,3-c]furan-1(3H)-one] | 2.55 | 19.6 µM | 58.1% | > 50 µM | – | –
COc1cc2cc3c(c(-c4ccc5nccnc5c4)c2cc1OC)C(=O)OC3 [Example 40, 6,7-dimethoxy-9-(quinoxalin-6-yl)naphtho[2,3-c]furan-1(3H)-one] | 76.71 | 0.65 µM | 65.1% | > 50 µM | – | –
COc1cc2cc3c(c(-c4cnc(N[C@H]5CC[C@H](O)CC5)nc4)c2cc1OC)C(=O)OC3 [Example 47, 9-(2-(((1r,4r)-4-hydroxycyclohexyl)amino)pyrimidin-5-yl)-6,7-dimethoxynaptho[2,3-c]furan-1(3H)-one] | 1.00 | > 50 µM | 61% | > 50 µM | – | –
CCOC(=O)CNc1ncc(-c2c3c(cc4cc(OC)c(OC)cc24)COC3=O)cn1 [Example 44, Ethyl (5-(6,7-dimethoxy-3-oxo-1,3-dihydronaphtho[2,3-c]furan-4-yl)pyrimidin-2-yl)glycinate] | – | – | 58.3% | – | – | –
CCOC(=O)CNC(=O)[C@@H]1CCCN1c1ncc(-c2c3c(cc4cc(OC)c(OC)cc24)COC3=O)cn1 [Example 45, Ethyl (5-(6,7-dimethoxy-3-oxo-1,3-dihydronaphtho[2,3-c]furan-4-yl)pyrimidin-2-yl)-L-proglycinate] | – | – | 64.2% | – | – | –
CNc1ccc(-c2c3c(cc4cc(OC)c(OC)cc24)COC3=O)cn1 [Example 229, 6,7-dimethoxy-9-(6-(methylamino)pyridin-3-yl)naphtho[2,3-c]furan-1(3H)-one] | 17.63 | 2.84 µM | – | > 50 µM | – | –
COc1cc2cc3c(c(-c4ccc(N(C)Cc5ccc(C)o5)nc4)c2cc1OC)C(=O)OC3 [Example 179, 6,7-dimethoxy-9-(6-(methyl((5-methylfuran-2-yl)methyl)amino)pyridin-3-yl)naphtho[2,3-c]furan-1(3H)-one] | 49.02 | 1.02 µM | – | > 50 µM | – | –
COc1cc2cc3c(c(-c4ccc(N5CCCC(C)C5)nc4)c2cc1OC)C(=O)OC3 (stereo not shown) [Example 126, 6,7-dimethoxy-9-(6-(3-methylpiperidin-1-yl)pyridin-3-yl)naphtho[2,3-c]furan-1(3H)-one] | 122.97 | 0.41 µM | – | > 50 µM | – | –
COc1cc2cc3c(c(-c4cccc5ncccc45)c2cc1OC)C(=O)OC3 [Example 132, 6,7-dimethoxy-9-(quinolin-5-yl)naphtho[2,3-c]furan-1(3H)-one] | 1.0 | > 50 µM | – | > 50 µM | – | –
CCC(C)CN(C)c1ccc(-c2c3c(cc4cc(OC)c(OC)cc24)COC3=O)cn1.Cl (stereo not shown) [Example 176, 6,7-dimethoxy-9-(6-(methyl(2-methylbutyl)amino)pyridin-3-yl)naphtho[2,3-c]furan-1(3H)-one] | 22.63 | – | – | > 50 µM | 2.21 µM | –
COc1cc2c(OC)c3c(c(-c4ccc(N(C)C5Cc6ccccc6C5)nc4)c2cc1OC)COC3=O.Cl [Example 268, 4-(6-((2,3-dihydro-1H-indan-2-yl)(methyl)amino)pyridin-3-yl)-6,7,9-trimethoxynaphtho[2,3-c]furan-1(3H)-one] | 1.00 | – | – | > 50 µM | > 50 µM | –
COc1cc2cc3c(c(-c4ccc(N(C)c5nc(SC)n(C)n5)nc4)c2cc1OC)C(=O)OC3.Cl [Example 215, 6,7-dimethoxy-9-(6-(methyl(1-methyl-5-(methylthio)-1H-1,2,4-triazol-3-yl)amino)pyridin-3-yl)naphtho[2,3-c]furan-1(3H)-one] | 2.55 | – | – | > 50 µM | 19.6 µM | –
